From US9695155B2, “Herbicidal substituted pyrimidinyloxy benzene compounds” (E. I. DU PONT DE NEMOURS AND COMPANY, priority 2013, dated 2017)

Tests used:
Italian ryegrass [1] = assay: Test A preemergence; type: in vivo, Lolium multiflorum
Excerpt: (§1) Seeds of plant species selected from barnyardgrass (Echinochloa crus-galli), kochia (Kochia scoparia), ragweed (common ragweed, Ambrosia elatior), Italian ryegrass (Lolium multiflorum), large (Lg) crabgrass (Digitaria sanguinalis), giant foxtail (Setaria faberii), morningglory (Ipomoea spp.), pigweed (Amaranthus retroflexus), velvetleaf (Abutilon theophrasti), wheat (Triticum aestivum), and corn (Zea mays) were planted into a blend of loam soil and sand and treated preemergence with a directed soil spray using test chemicals formulated in a non-phytotoxic solvent mixture which included a surfactant.
(§2) At the same time, plants selected from these crop and weed species and also blackgrass (Alopecurus myosuroides), and galium (catchweed bedstraw, Galium aparine) were planted in pots containing the same blend of loam soil and sand and treated with postemergence applications of test chemicals formulated in the same manner. Plants ranged in height from 2 to 10 cm and were in the one- to two-leaf stage for the postemergence treatment. Treated plants and untreated controls were maintained in a greenhouse for approximately 10 days, after which time all treated plants were compared to untreated controls and visually evaluated for injury. Plant response ratings, summarized in Table A, are based on a 0 to 100 scale where 0 is no effect and 100 is complete control. A dash (-) response means no test result.

barnyardgrass [2] = assay: Test B flooded paddy test; type: in vivo, Echinochloa crus-galli; conditions: Flood, 250 g ai/ha; 0 to 100 scale where 0 is no effect and 100 is complete control
How it was run: (§3)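 Evaluation is visual, against untreated controls, 13 to 15 days after treatment. Before treatment, plants reached the 2-leaf stage; pots were then flooded 3 cm deep, compound was added to the water, and that level was maintained. Ratings run 0 to 100, with 100 meaning complete control.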

kochia [3] = assay: Test A postemergence; type: in vivo, Kochia scoparia
How it was run: (§4)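 Compounds in non-phytotoxic solvent with surfactant applied as soil spray preemergence, or postemergence to plants 2-10 cm at one- to two-leaf stage, in loam/sand. After approximately 10 days in greenhouse, injury rated visually versus untreated controls, 0 (no effect) to 100 (complete control).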

Italian ryegrass [4] = assay: Test A postemergence; type: in vivo, Lolium multiflorum
How it was run: as §4

kochia [5] = assay: Test A preemergence; type: in vivo, Kochia scoparia
How it was run: as §4

blackgrass = assay: Test A postemergence; type: in vivo, Alopecurus myosuroides
Excerpt: as §1, §2

ragweed [6] = assay: Test A postemergence; type: in vivo, Ambrosia elatior
Excerpt: as §1, §2

wheat = assay: Test A postemergence; type: in vivo, Triticum aestivum
How it was run: as §4

ragweed [7] = assay: Test A preemergence; type: in vivo, Ambrosia elatior
Excerpt: as §1, §2

Heteranthera limosa = assay: Test B flooded paddy test; type: in vivo; conditions: Flood, 250 g ai/ha; 0 to 100 scale where 0 is no effect and 100 is complete control
How it was run: as §3

giant foxtail [8] = assay: Test A postemergence; type: in vivo, Setaria faberii; conditions: for Plant response rating, Foxtail, Giant: 1000 g ai/ha, 0 to 100 scale, 0 no effect, 100 complete control
How it was run: as §4

rice = assay: Test B flooded paddy test; type: in vivo, Oryza sativa; conditions: Flood, 250 g ai/ha; 0 to 100 scale where 0 is no effect and 100 is complete control
How it was run: as §3

pigweed [9] = assay: Test A postemergence; type: in vivo, Amaranthus retroflexus; conditions: for Plant response rating, Pigweed: 1000 g ai/ha, 0 to 100 scale, 0 no effect, 100 complete control
How it was run: as §4

barnyardgrass [10] = assay: Test A preemergence; type: in vivo, Echinochloa crus-galli
How it was run: as §4

giant foxtail [11] = assay: Test A preemergence; type: in vivo, Setaria faberii; conditions: for Foxtail, Giant plant response rating: 1000 g ai/ha, 0 to 100 scale, 0 no effect, 100 complete control, approx. 10 days
How it was run: as §4

galium = assay: Test A postemergence; type: in vivo, Galium aparine
Excerpt: as §1, §2

corn = assay: Test A postemergence; type: in vivo, Zea mays; conditions: for Plant response rating, Corn: 1000 g ai/ha, 0 to 100 scale, 0 no effect, 100 complete control
How it was run: as §4

barnyardgrass [12] = assay: Test A postemergence; type: in vivo, Echinochloa crus-galli; conditions: for Plant response rating, Barnyardgrass: 1000 g ai/ha, 0 to 100 scale, 0 no effect, 100 complete control
How it was run: as §4

pigweed [13] = assay: Test A preemergence; type: in vivo, Amaranthus retroflexus; conditions: for Pigweed plant response rating: 1000 g ai/ha, 0 to 100 scale, 0 no effect, 100 complete control, approx. 10 days
How it was run: as §4

sedge, umbrella = assay: Test B flooded paddy test; type: in vivo, Cyperus difformis; conditions: Flood, 250 g ai/ha; 0 to 100 scale where 0 is no effect and 100 is complete control
How it was run: as §3

[14] = 125 g ai/ha, 0 to 100 scale where 0 is no effect and 100 is complete control
[15] = 500 g ai/ha, 0 to 100 scale where 0 is no effect and 100 is complete control
[16] = 1000 g ai/ha, 0 to 100 scale, 0 no effect, 100 complete control, approx. 10 days
[17] = 1000 g ai/ha, 0 to 100 scale, 0 no effect, 100 complete control

With `N#Cc1cccc(Oc2ncc(Cl)cn2)c1-n1cc(SC(F)(F)F)cn1` [Compound 143, 3-[(5-chloro-2-pyrimidinyl)oxy]-2-[4-(trifluoromethylthio)-1H-pyrazol-1-yl]-benzonitrile] as the molecule, how does the “Plant response rating, Ryegrass, Italian” value (Italian ryegrass [1]; [14]) read?
The value was 0.

What about the “Ryegrass, Italian plant response rating” value (Italian ryegrass [1]; [15]) of the same molecule?
The value was 20.

What about the “Plant response rating, Barnyardgrass” value (barnyardgrass [2]) of the same molecule?
Its value is 0.

What about the “Kochia plant response rating” value (kochia [3]; [14]) of the same molecule?
The value was 30.

And the “Plant response rating, Kochia” value (kochia [3]; [15])?
The value was 90.

What about the “Ryegrass, Italian plant response rating” value (Italian ryegrass [4]; [14]) of the same molecule?
Its value is 0.

What about the “Plant response rating, Ryegrass, Italian” value (Italian ryegrass [4]; [15]) of the same molecule?
Its value is 90.

What about the “Plant response rating, Kochia” value (kochia [5]; [14]) of the same molecule?
Its value is 50.

What about the “Kochia plant response rating” value (kochia [5]; [15]) of the same molecule?
The value was 100.

What about the “Blackgrass plant response rating” value (blackgrass; [14]) of the same molecule?
The value was 0.

What about the “Plant response rating, Blackgrass” value (blackgrass; [15]) of the same molecule?
Its value is 90.

What about the “Ragweed plant response rating” value (ragweed [6]; [14]) of the same molecule?
The value was 0.

And the “Plant response rating, Ragweed” value (ragweed [6]; [15])?
Its value is 100.

What about the “Wheat plant response rating” value (wheat; [14]) of the same molecule?
The value was 0.

And the “Plant response rating, Wheat” value (wheat; [15])?
Its value is 30.

And the “Plant response rating, Ragweed” value (ragweed [7]; [14])?
Its value is 0.

What about the “Ragweed plant response rating” value (ragweed [7]; [15]) of the same molecule?
The value was 20.

What about the “Plant response rating, Ducksalad” value (Heteranthera limosa) of the same molecule?
Its value is 40.

And the “Foxtail, Giant plant response rating” value (giant foxtail [8]; [14])?
The value was 0.

What about the pest or weed control at 500 g/ha (giant foxtail [8]; Setaria faberi, post-emergence, 240 h, 500 g ai/ha, 0 to 100 scale where 0 is no effect and 100 is complete control, read-out: Plant response rating, Foxtail, Giant) of the same molecule?
Its pest or weed control at 500 g/ha is 100%.

And the “Plant response rating, Rice” value (rice)?
The value was 0.

And the “Pigweed plant response rating” value (pigweed [9]; [14])?
Its value is 70.

And the pest or weed control at 500 g/ha (pigweed [9]; Amaranthus retroflexus, post-emergence, 500 g ai/ha, 0 to 100 scale where 0 is no effect and 100 is complete control, read-out: Plant response rating, Pigweed)?
The pest or weed control at 500 g/ha was 100%.

What about the “Plant response rating, Barnyardgrass” value (barnyardgrass [10]; [14]) of the same molecule?
The value was 30.

What about the pest or weed control at 500 g/ha (barnyardgrass [10]; Echinochloa crus-galli, pre-emergence, 240 h, 500 g ai/ha, 0 to 100 scale where 0 is no effect and 100 is complete control, read-out: Barnyardgrass plant response rating) of the same molecule?
The pest or weed control at 500 g/ha was 100%.

And the “Plant response rating, Foxtail, Giant” value (giant foxtail [11]; [14])?
Its value is 80.

And the pest or weed control at 500 g/ha (giant foxtail [11]; Setaria faberi, pre-emergence, 240 h, 500 g ai/ha, 0 to 100 scale where 0 is no effect and 100 is complete control, read-out: Foxtail, Giant plant response rating)?
The pest or weed control at 500 g/ha was 100%.

And the “Galium plant response rating” value (galium; [14])?
Its value is 30.

And the “Plant response rating, Galium” value (galium; [15])?
The value was 100.

And the “Corn plant response rating” value (corn; [14])?
Its value is 30.

What about the Corn plant response rating (crop injury, 0 = no effect, 100 = complete kill) at 500 g/ha (corn; Zea mays, post-emergence, 240 h, 500 g ai/ha, 0 to 100 scale where 0 is no effect and 100 is complete control) of the same molecule?
Its Corn plant response rating (crop injury, 0 = no effect, 100 = complete kill) at 500 g/ha is 40%.

What about the “Barnyardgrass plant response rating” value (barnyardgrass [12]; [14]) of the same molecule?
The value was 0.

And the pest or weed control at 500 g/ha (barnyardgrass [12]; Echinochloa crus-galli, post-emergence, 240 h, 500 g ai/ha, 0 to 100 scale where 0 is no effect and 100 is complete control, read-out: Plant response rating, Barnyardgrass)?
The pest or weed control at 500 g/ha was 80%.

And the “Plant response rating, Pigweed” value (pigweed [13]; [14])?
Its value is 90.

And the pest or weed control at 500 g/ha (pigweed [13]; Amaranthus retroflexus, pre-emergence, 240 h, 500 g ai/ha, 0 to 100 scale where 0 is no effect and 100 is complete control, read-out: Pigweed plant response rating)?
Its pest or weed control at 500 g/ha is 100%.

And the “Plant response rating, Sedge, Umbrella” value (sedge, umbrella)?
The value was 0.

Which results are given for `Fc1cccc(Oc2ncc(Cl)cn2)c1-n1cc(C2CCCCC2)nn1` [Compound 102]?
Ryegrass, Italian plant response rating (Italian ryegrass [1]; [16]): 0; Plant response rating, Kochia (kochia [3]; [17]): 30; Plant response rating, Ryegrass, Italian (Italian ryegrass [4]; [17]): 0; Kochia plant response rating (kochia [5]; [16]): 0; Plant response rating, Blackgrass (blackgrass; [17]): 40; Plant response rating, Ragweed (ragweed [6]; [17]): 20; Plant response rating, Wheat (wheat; [17]): 0; Ragweed plant response rating (ragweed [7]; [16]): 0; Plant response rating, Foxtail, Giant (giant foxtail [8]): 40; Plant response rating, Pigweed (pigweed [9]): 80; Plant response rating, Barnyardgrass (barnyardgrass [10]; [17]): 50; Foxtail, Giant plant response rating (giant foxtail [11]): 100; Plant response rating, Galium (galium; [17]): 70; Plant response rating, Corn (corn): 20; Plant response rating, Barnyardgrass (barnyardgrass [12]): 50; Pigweed plant response rating (pigweed [13]): 20

How did the “Ryegrass, Italian plant response rating” value (Italian ryegrass [1]; [16]) turn out when `Fc1cccc(Oc2ncc(Cl)cn2)c1-n1cc(-c2cccc(C(F)(F)F)c2)nn1` [Compound 276] was run?
The value was 0.

And the “Plant response rating, Kochia” value (kochia [3]; [17])?
Its value is 40.

And the “Plant response rating, Ryegrass, Italian” value (Italian ryegrass [4]; [17])?
The value was 0.

And the “Kochia plant response rating” value (kochia [5]; [16])?
Its value is 0.

And the “Plant response rating, Blackgrass” value (blackgrass; [17])?
The value was 20.

What about the “Plant response rating, Ragweed” value (ragweed [6]; [17]) of the same molecule?
The value was 30.

And the “Plant response rating, Wheat” value (wheat; [17])?
Its value is 0.

What about the “Ragweed plant response rating” value (ragweed [7]; [16]) of the same molecule?
Its value is 0.

And the “Plant response rating, Foxtail, Giant” value (giant foxtail [8])?
The value was 20.

What about the “Plant response rating, Pigweed” value (pigweed [9]) of the same molecule?
The value was 80.

And the “Barnyardgrass plant response rating” value (barnyardgrass [10]; [16])?
The value was 0.

And the “Foxtail, Giant plant response rating” value (giant foxtail [11])?
Its value is 0.

What about the “Plant response rating, Galium” value (galium; [17]) of the same molecule?
The value was 20.

What about the “Plant response rating, Corn” value (corn) of the same molecule?
Its value is 10.

And the “Plant response rating, Barnyardgrass” value (barnyardgrass [12])?
The value was 20.

And the “Pigweed plant response rating” value (pigweed [13])?
Its value is 0.
